Results reported in US20150064109A1, “Quantified differentiation and identification of changes in tissue by enhancing differences in blood flow and metabolic activity” (priority 2013, published 2015).

Assays:
breast tissue [1] = test: Study 2: B.E.S.T. (HDD-enhanced sestamibi) breast imaging, MCA compared with histopathology in 195 individuals; assay type: in vivo, human; details: mean ± SD; for MCA quantitative counts, Cancer: breast cancer (n=15); for MCA quantitative counts, Atypia (Pre-cancerous): cellular atypia (15 individuals); for MCA quantitative counts, Inflammatory States: inflammatory changes (n=77); for MCA quantitative counts, Normal: normal breast tissue (n=88)
Description: Tissue samples were obtained either through ductoscopy, fine needle aspiration or open biopsy and were interpreted by pathologists without knowledge of the sestamibi image results. Results were interpreted as being normal, inflammatory (including trauma, injury, infection, fibrocystic disease, radiation exposure and subsequent injury), atypia (with increasing order of cellular change progressing from hyperplasia to metaplasia/atypia to ductal carcinoma in situ) and cancer.
In a second study, one hundred and ninety five (195) (4 men, 191 women) individuals were studied using the enhanced (HDD) imaging approach. The study included four men having detectable breast lumps and 191 women, including 58 seeking additional information regarding breast disease concerns, and 133 with breast lumps and/or abnormal mammograms. The results of this study were also compared with biopsy data.
(§1) Subjects arrive in a fasting state 15-30 minutes prior to the study. An 18-20 gauge intravenous catheter was placed either in the right antebrachium, or in the left antebrachium. The IV was placed in the contralateral arm if a specific breast was the breast in question. […] The catheter was flushed with 10-20 cc of normal saline immediately after the HDD had been given to assure introduction of all of the HDD into the venous system. […] Anterior images were obtained with the patient in a supine position.
(§2) An example of the blue-green format is shown in FIG. 2a, juxtaposed with resting images.
Following the image reconstruction and presentation of each breast image, the region of greatest maximal activity (MCA) was determined and “quantified.” MCA is a measure of detected radiation (gamma) emission acquired by the SPECT camera during the imaging process and reflects the amount of isotope present at any given time within the tissue of interest. See Fleming R M, Dooley W C, Boyd L B, Kubovy C, “Breast Enhanced Scintigraphy Testing (B.E.S.T.)—Increased accuracy in detecting breast cancer accomplished by combining breast and cardiac imaging,” 48th Annual Scientific Session of the Society of Nuclear Medicine, Toronto, Ontario, Canada, 26 Jun. 2001, the disclosure of which is incorporated herein by this reference. […] All readings and determination of MCA were determined for each breast prior to any knowledge of clinical, mammographic or pathologic information, which could in any way bias the results. These procedures were performed at a recognized Center of Excellence for Nuclear Procedures under the direct supervision of a physician Boarded in Nuclear Imaging.
The outcomes of histopathologic specimens were compared with the MCA derived from sestamibi imaging. Descriptive statistical analysis of the MCAs were determined including mean±standard deviations and confidence intervals (CI) for the mean. Group comparisons were made using two-tailed t-tests to determine statistical differences defined as p-values of ≦0.05. Graphic representation of the means is shown for comparison purposes as well as raw data comparison for the histopathologic categories.

breast tissue [2] = test: Study 1: sestamibi breast imaging, maximal count activity (MCA) with Miraluma, SDD and HDD (B.E.S.T.) in ten women; assay type: in vivo, human; details: for MCA counts, Cancer: breast cancer tissue; for MCA counts, Inflamatory States: inflammatory breast tissue; for tissue differentiation: outcome in words, referring to FIG. 3 and Table 1
Description: Two sestamibi imaging studies were conducted. […] The results were also compared with biopsy data. All 10 women in the study had either an abnormality on mammography or a detectable lump on physical examination.
Subjects undergoing breast imaging arrived in the fasting state 15-30 minutes prior to the study. […] The IV was placed in the contralateral arm if there is a specific question regarding a specific breast. Sestamibi was administered intravenously four minutes into the study followed by a 10-20 cc normal saline flush to assure delivery of the isotope into the venous system, with imaging of the breast beginning ten minutes into the study. A SPECT camera was positioned in a stationary (planar) position for each of the images.
Breast imaging began with the patient placed in a prone position on top of a 6-inch foam pad designed to enhance the comfort of the patient while improving breast imaging. Each side of the 6-inch pad had breast inserts held in place by hook and loop-type adhesive strips, which were removed allowing each breast to be positioned through the openings in a dependent manner without breast compression. Planar breast imaging began with the BrQL breast (lateral view of breast in question or the right breast if neither breast was specifically suspected of having an abnormality), then the BrCL breast (lateral view of the breast contralateral to BrQL). Patients were then placed on their back for the anterior (BrAS) image of both breasts. Any areas of special concern, PO BrQ1 (posterior oblique view of 1st breast noted to have abnormal activity on initial views) and PO BrQ2 (posterior oblique view of the other breast if its activity is abnormal) were then imaged.
All images were acquired while the patient was prone, except for the anterior (BrAS) image, which was obtained while the patient was supine.
Breast image acquisition and reconstruction was performed using a Siemens orbiter Single Photon Emission Computed Tomography (SPECT) camera with 75 photomultiplier tubes (PMTs) and a 128 by 128 matrix, available from Siemens Medical Solutions, Malvern, Pa. The images were acquired with the camera head in a stationary (planar) position. The camera, computer and software providing quantification of maximal count activity (MCA) were supplied by NC Systems of Boulder, Colo. A low-energy high-resolution (LEHR) collimator was used providing a resolution of 3.4 mm.
as §1, §2
Following the image reconstruction and presentation of each breast image, the region of greatest maximal activity (MCA) was determined and “quantified.” MCA is a measure of detected radiation (gamma) emission acquired by the SPECT camera during the imaging process and reflects the amount of isotope present at any given time within the tissue of interest. See Fleming R M, Dooley W C, Boyd L B, Kubovy C, “Breast Enhanced Scintigraphy Testing (B.E.S.T.)—Increased accuracy in detecting breast cancer accomplished by combining breast and cardiac imaging,” 48th Annual Scientific Session of the Society of Nuclear Medicine, Toronto, Ontario, Canada, 26 Jun. 2001, the disclosure of which is incorporated herein by this reference. […] All readings and determination of MCA were determined for each breast prior to any knowledge of clinical, mammographic or pathologic information, which could in any way bias the results.

mitochondria = details: energy dependent manner; cited from earlier work

Structure (SMILES) | MCA quantitative counts, Cancer (breast tissue [1]; listed as B.E.S.T. ©) | MCA quantitative counts, Cancer (breast tissue [1]; listed as B.E.S.T.©) | MCA quantitative counts, Atypia (Pre-cancerous) (breast tissue [1]; listed as B.E.S.T. ©) | MCA quantitative counts, Atypia (Pre-cancerous) (breast tissue [1]; listed as B.E.S.T.©) | MCA quantitative counts, Inflammatory States (breast tissue [1]; listed as B.E.S.T. ©) | MCA quantitative counts, Inflammatory States (breast tissue [1]; listed as B.E.S.T.©) | MCA quantitative counts, Normal (breast tissue [1]; listed as B.E.S.T. ©) | MCA quantitative counts, Normal (breast tissue [1]; listed as B.E.S.T.©) | MCA counts, Cancer (breast tissue [2]; mean ± SD, Study 1) | MCA counts, Cancer (breast tissue [2]; mean ± SD, Study 1, listed as B.E.S.T.©) | MCA counts, Inflamatory States (breast tissue [2]; mean ± SD, Study 1) | MCA counts, Normal (breast tissue [2]; normal breast tissue, mean ± SD, sestamibi 25-30 mCi iv, Study 1) | tissue differentiation (breast tissue [2]; listed as HDD) | tissue differentiation (breast tissue [2]) | sestamibi taken up by mitochondria (mitochondria)
OCCN(CCO)c1nc(N2CCCCC2)c2nc(N(CCO)CCO)nc(N3CCCCC3)c2n1 [HDD/B.E.S.T. ©, dipyridamole] | 445.3 ± 83.3 counts | 445.3±83.3 counts | 307.7 ± 29.3 counts | 307.7±29.3 counts | 218.0 ± 40.3 counts | 218.0±40.3 counts | 145 ± 29.1 counts | 145.0±29.1 counts | 442.0 ± 5.7 counts | 442.0±5.7 counts | 228.8 ± 24.0 counts | 125.5 ± 31.5 counts | statistically significant at differentiating tissue types |  | 
OCCN(CCO)c1nc(N2CCCCC2)c2nc(N(CCO)CCO)nc(N3CCCCC3)c2n1 [SDD, dipyridamole] |  |  |  |  |  |  |  |  | 285.8 ± 17.0 counts |  | 183.5 ± 19.0 counts |  |  | useless in tissue differentiation | 
[99Tc+].[C-]#[N+]CC(C)(C)OC.[C-]#[N+]CC(C)(C)OC.[C-]#[N+]CC(C)(C)OC.[C-]#[N+]CC(C)(C)OC.[C-]#[N+]CC(C)(C)OC.[C-]#[N+]CC(C)(C)OC [sestamibi, Technetium-99m hexakis 2-methoxyisobutylisonitrile] |  |  |  |  |  |  |  |  |  |  |  |  |  |  | over 90%
